According to patent publication US9943398B2, “Increasing survival of free tissue grafts and flaps using phosphodiesterase type 5 (PDE5) inhibitors” (New York University, priority 2012, dated 2018):

Tests used:
Format in all cases: in vivo, mice
[1] = test system: fat grafts; assay: Graft weight retention of explanted fat grafts; details: 8 weeks post transplant
Experimental: (§1) To examine the effect of PDE5 inhibitor pretreatment of donor graft tissue on graft take and survival, transfer of syngeneic fat between Tie2/LacZ mice (donor) and wild type FVB mice (recipient) was performed. A schematic representation of the protocol is depicted in FIG. 1A. Since the transgenic mice express the lacZ gene in their blood vessels, donor and recipient vasculature can be independently visualized and assessed based on the presence or absence of lacZ gene expression.
(§2) Prior to harvesting the inguinal fat pads from 6-12 week old transgenic FVB Tie2/LacZ mice, the pads were infiltrated with small volumes of PBS (control) and 35 nM sildenafil citrate in PBS and allowed to dwell for 15-20 minutes. The pads were harvested, washed in PBS, and finely minced to simulate conditions of human harvest. The minced fat was centrifuged at 3000 rpm for 3 minutes and the aqueous and oil layers removed leaving the adipose layer for injection. The dorsum of syngeneic wildtype FVB mice was used as the recipient bed for the processed lipoaspirate, as previously described (Sultan et al., “Human Fat Grafting Alleviates Radiation Skin Damage in a Murine Model,” Plast Reconstr Surg 128:363-72 (2011) and Thanik et al., “A Murine Model for Studying Diffusely Injected Human Fat,” Plast Reconstr Surg 124:74-81 (2009), which are hereby incorporated by reference in their entirety). […]

[2] = test system: fat grafts; assay: Vascular flux (Doppler) in grafted fat tissue after transplantation
Experimental: as §1, §2

[3] = test system: explanted fat grafts (Tie2/LacZ donor, wild type FVB recipient); assay: Quantitative PCR of 2-day old explanted fat grafts after sildenafil pretreatment of donor tissue; details: qPCR
Experimental: as §1
Prior to harvesting the inguinal fat pads from 6-12 week old transgenic FVB Tie2/LacZ mice, the pads were infiltrated with small volumes of PBS (control) and 35 nM sildenafil citrate in PBS and allowed to dwell for 15-20 minutes. The pads were harvested, washed in PBS, and finely minced to simulate conditions of human harvest. The minced fat was centrifuged at 3000 rpm for 3 minutes and the aqueous and oil layers removed leaving the adipose layer for injection. The dorsum of syngeneic wildtype FVB mice was used as the recipient bed for the processed lipoaspirate, as previously described (Sultan et al., “Human Fat Grafting Alleviates Radiation Skin Damage in a Murine Model,” Plast Reconstr Surg 128:363-72 (2011) and Thanik et al., “A Murine Model for Studying Diffusely Injected Human Fat,” Plast Reconstr Surg 124:74-81 (2009), which are hereby incorporated by reference in their entirety). Autologous fat was infiltrated using a blunt tip cannula through a 2-mm caudal midline incision. The infiltration cannula was advanced and withdrawn in a fan like pattern in the dorsal subdermal plane of the mouse, to maintain an even layer over the entire dorsal surface.

[4] = test system: fat grafts; assay: Graft volume maintenance and graft survival analysis after fat transfer
Experimental: as §1, §2

[5] = 2-day old explanted grafts, 35 nM sildenafil citrate pretreatment vs PBS/saline control
[6] = explanted tissue, sildenafil pretreatment vs saline control

Compound: CCCc1nn(C)c2c(=O)nc(-c3cc(S(=O)(=O)N4CCN(C)CC4)ccc3OCC)[nH]c12 [sildenafil, 5-{2-Ethoxy-5-[(4-methyl-1-piperazinyl)sulfonyl]phenyl}-1-methyl-3-propyl-1,4-dihydro-7H-pyrazolo[4,3-d]pyrimidin-7-one 2-hydroxy-1,2,3-propanetricarboxylate (1:1)]
- enhanced graft retention (percent graft weight retention) compared to saline treated grafts [1]: > 2 fold
- revascularization within the core of the graft ([2]; 1 and 2 weeks post grafting, vs control): significant improvement in revascularization
- restoration of blood flow within the grafted tissues (vascular flux) ([2]; first two weeks following transplantation, vs saline control): faster restoration of blood flow
- LacZ expression (donor-derived endothelial cell function/viability) [3, 5]: increased
- PECAM-1 expression (donor-derived endothelial cell function/viability) [3, 5]: increased
- expression of the inflammatory gene SDF-1α [3, 6]: decreased
- expression of the inflammatory gene VCAM [3, 6]: decreased
- graft tissue volume after transfer ([4]; over 12 weeks after transfer, vs saline treated grafts, which are resorbed quickly): maintained virtually all of its volume over time
- graft survival ([4]; survival analysis vs saline-treated control grafts and devascularized (trypsin-inactivated) grafts): survive significantly longer
